From patent publication US20090191543A1, “IDENTIFICATION OF RAC1B AS A MARKER AND MEDIATOR OF METALLOPROTEINASE-INDUCED MALIGNANCY” (THEREGENTS OF THE UNIVERSITY OF CALIFORNIA, priority 2005, published 2009)

Key:
8-oxodeoxyguanosine = assay: 8-oxoG analysis, FITC-avidin nuclear staining (DNA damage); type: cell-based, mouse; settings: for MMP-3-induced increase in FITC-avidin nuclear staining: cells treated with MMP-3 plus inhibitor, FIG. 4b
Protocol: ROS and 8-oxoG analyses. […] FITC-conjugated avidin (Sigma; 1 hr, 37° C.). […] ID NO: 12). […] J Cell Biol 158, 357-68 (2002).

MMP-3 = target: T1, MMP-3 (Rattus norvegicus, UniProt P03957); assay: Effect of MMP inhibitor on cells treated with MMP-3 (vimentin-EGFP construct, morphology, FIG. 8b); type: cell-based, mouse
T1 construct: expressed in transfected cells; host or cells: SCp2 cells; conditioned medium used as the MMP-3 source
T1 sequence (P03957 98-475): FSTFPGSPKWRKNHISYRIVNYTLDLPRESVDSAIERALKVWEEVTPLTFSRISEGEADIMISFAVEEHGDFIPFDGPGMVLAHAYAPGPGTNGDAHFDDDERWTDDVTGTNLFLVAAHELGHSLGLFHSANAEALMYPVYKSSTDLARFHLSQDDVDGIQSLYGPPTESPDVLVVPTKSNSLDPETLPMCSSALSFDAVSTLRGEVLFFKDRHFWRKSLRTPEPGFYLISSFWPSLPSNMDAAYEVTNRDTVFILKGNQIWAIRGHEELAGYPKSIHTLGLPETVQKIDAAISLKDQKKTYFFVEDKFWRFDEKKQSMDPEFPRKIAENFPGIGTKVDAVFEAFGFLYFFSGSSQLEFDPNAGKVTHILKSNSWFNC
Excerpt: The MMP inhibitor GM6001 blocked the MMP-3-mediated effects. […] Scale bar, 50 μm.

SCp2 cells [1] = assay: PALA resistance assay (genomic instability); type: cell-based, mouse
vimentin = assay: Mesenchymal vimentin expression; type: cell-based, mouse; settings: for expression of mesenchymal vimentin: MMP-3 4 days or 25 μM H2O2 7 days
Protocol: (§1) Except as otherwise indicated, cells were incubated in the presence of conditioned medium containing MMP-3 for 4 days and with 25 μM H2O2 for 7 days. NAC was used at a concentration of 10 mM. Antibodies against cytokeratin and vimentin were described previously (Lochter, A. et al. J Biol Chem 272, 5007-15, 1997; Lochter, A. et al. J Cell Biol 139, 1861-72, 1997).
(§2) […]; all modified plasmids were sequence-verified.

Snail = Snail transcript expression; type: cell-based, mouse; settings: FIG. 3b; for expression of the transcription factor Snail: MMP-3, or H2O2 in the absence of MMP-3
Protocol: as §1, §2

SCp2 cells [2] = assay: Cell scattering (FIG. 3f); type: cell-based, mouse
Protocol: as §1

cytokeratins = assay: Epithelial cytokeratin levels in MMP-3-treated cells; type: cell-based, mouse
Excerpt: Cell culture, antibodies, and plasmids. Cell culture was as previously described (Lochter, A. et al. Misregulation of stromelysin-1 expression in mouse mammary tumor cells accompanies acquisition of stromelysin-1-dependent invasive properties. J. Biol Chem 272, 5007-15, 1997; Lochter, A. et al. Matrix metalloproteinase stromelysin-1 triggers a cascade of molecular alterations that leads to stable epithelial-to-mesenchymal conversion and a premalignant phenotype in mammary epithelial cells. J Cell Biol 139, 1861-72, 1997); for gene repression, a 5 mg ml^−1 stock solution of tetracycline in 100% ethanol was diluted 1:1000 into culture medium and changed daily. To stimulate cells with MMP-3, we used medium that had been conditioned by SCp2 cells containing the tet-regulated, autoactivated MMP-3-construct (Lochter, A. et al. J Biol Chem 272, 5007-15, 1997; Lochter, A. et al. J Cell Biol 139, 1861-72, 1997) with expression induced by growth in the absence of tetracycline; conditioned medium from cells repressed by treatment with tetracycline was used for controls. This conditioned medium was analyzed by zymography to verify that only MMP-3 was being expressed, and was shown be active through extracellular proteolysis (FIG. 8). […] NAC was used at a concentration of 10 mM. […]

SCp2 cells [3] = assay: MMP-3-induced cell motility, invasion and morphological alterations (not shown); type: cell-based, mouse; settings: NAC
SCp2 cells [4] = assay: LC50 of PALA for SCp2 cells; settings: read-out: LC50 of PALA for SCp2 cells
mammary epithelial cells = assay: Cell motility assessed by scratch assay; type: cell-based, mouse; settings: FIG. 1f
Excerpt: FIG. 1f is a graph showing rate of cell migration and motility as assessed by scratch assay (Goodman, S. L., Vollmers, H. P., and Birchmeier, W. Cell 41, 1029-1038, 1985).

CAD locus = assay: Fluorescence in situ hybridization of CAD gene locus; type: cell-based, mouse; settings: exposure to MMP-3; FIG. 4d
Rac1b = settings: mammary epithelial cells treated with MMP-3; FIGS. 1b-1d
Protocol: (§3) Transcript levels were assessed using RT/PCR by isolating RNA (Tri-pure; Roche Diagnostics), synthesizing cDNA, and performing quantitative, real-time PCR (Lightcycler, Roche Diagnostics); all these experiments were normalized to GAPDH.
For analysis of Rac1 and Rac1b (FIG. 1c), oligonucleotide primers that hybridize to sequences flanking the splice insertion site were used; for specific analysis of Rac1b (FIG. 1d, 4h), oligonucleotide primers specific for the Rac1b splice isoform were used.

[5] = tested on: keratin, E-cadherin, vimentin, SM actin, TGFβ, Snail, collagen A1 and fibronectin; settings: cells treated with MMP-3 for 4 days; FIG. 5b
Protocol: as §3

cellular ROS = settings: treatment with MMP-3; FIG. 2a
Protocol: ROS and 8-oxoG analyses. To measure ROS concentrations, cells were incubated in the dark with 50 mM DCFDA (Molecular Probes) for 30 min in serum- and phenol-red-free medium. […] Images were captured using a Nikon Diaphot 300 microscope and Spot RT camera and software (Technical Instruments, Burlingame). Fluorescence was quantified using IMAGEJ (URL:=<http://rsb.info.nih.gov/ij/index.html>). For DCFDA staining, cellular fluorescence was quantified, for FITC-avidin staining, nuclear fluorescence was measured (using a DAPI image mask). More than 250 measurements were made for each data point.

RhoA = settings: MMP-3-treated cells; not shown
Cdc42 = settings: MMP-3-treated cells; not shown
SCp2 cells [6] = settings: MMP-3 for 14 days, then selected with PALA; FIG. 4f
[7] = SCp2 cells, treatment with MMP-3 for 28 days, FIG. 5a

## CNC(=O)[C@H](Cc1c[nH]c2ccccc12)NC(=O)[C@@H](CC(=O)NO)CC(C)C [GM6001]
8-oxodeoxyguanosine
  MMP-3-induced increase in FITC-avidin nuclear staining: blocked
MMP-3; cells treated with MMP-3
  MMP-3-mediated effects: blocked
MMP-3; coincubation with GM6001
  malignant transformation (flattened morphology of invasive cells) of MMP-3 induced cells: prevents

## OO [H2O2, reference compound]
SCp2 cells [1]; H2O2 25 μM, FIG. 4e
  PALA resistance in the absence of MMP-3: reproduced
vimentin; FIG. 3g
  expression of mesenchymal vimentin: can stimulate expression
Snail
  expression of the transcription factor Snail: induced
SCp2 cells [2]
  cell scattering: cell scattering induced

## CC(=O)N[C@@H](CS)C(=O)O [NAC, N-acetyl cysteine, reference compound]
SCp2 cells [1]; 14 d treatment with MMP-3, NAC 10 mM, FIG. 4e
  MMP-3-induced PALA resistance / CAD amplification: inhibited
8-oxodeoxyguanosine
  MMP-3-induced increase in FITC-avidin nuclear staining: blocked
cytokeratins; NAC 10 mM, FIG. 3a
  MMP-3-induced downregulation of epithelial cytokeratins: effectively inhibited
vimentin; NAC 10 mM, FIG. 3g
  MMP-3-induced upregulation of mesenchymal vimentin: effectively inhibited
Snail; NAC 10 mM
  MMP-3-enhanced expression of transcription factor Snail: blocked
SCp2 cells [3]
  MMP-3-induced cell motility, invasion, and morphological alterations: inhibited

## O=C(O)C[C@H](NC(=O)CP(=O)(O)O)C(=O)O [PALA, N-(phosphonacetyl)-L-aspartate]
SCp2 cells [4]
  CC50: 25 µM

## MMP-3: autoactivated MMP-3 supplied as medium conditioned by SCp2 cells with tet-regulated construct
SCp2 cells [1]; SCp2 cells, 200 μM PALA, after 28 days
  PALA-resistant colonies, after 28 days of MMP-3 exposure: 700 colonies/10^5 cells
SCp2 cells [1]; SCp2 cells, 200 μM PALA, one week of MMP-3 exposure
  PALA-resistant colonies, after one week of MMP-3 exposure: 200 colonies/10^5 cells
8-oxodeoxyguanosine; cells treated with MMP-3 vs untreated, FIG. 4a
  FITC-avidin nuclear staining: significantly increased
cytokeratins; [7]
  cytokeratin staining: decrease in cytokeratins
vimentin; FIG. 3g
  expression of mesenchymal vimentin: can stimulate expression
vimentin; [7]
  vimentin staining: increase in vimentin
Snail
  expression of the transcription factor Snail: enhances expression
SCp2 cells [2]
  cell scattering: cell scattering induced
Mammary epithelial cells
  cell migration and motility: causes an increase
CAD locus
  CAD locus copy number in PALA-resistant cells: amplification of the CAD locus
Rac1b
  Rac1b transcript and expression levels: upregulates
[5]
  transcript levels of keratin and E-cadherin: greater than two-fold decrease
  transcript levels of vimentin, SM actin, TGFβ, Snail, collagen A1 and fibronectin: two-fold or greater increase
Cellular ROS
  cellular ROS (DCFDA fluorescence): produced increases
RhoA
  activity of RhoA: unchanged
Cdc42
  activity of Cdc42: unchanged
SCp2 cells [6]
  genomic alterations by CGH analysis: many additional genomic amplifications and deletions
